# Measurements as given in US7879829B2, “19-nor-vitamin D analogs with 1,2-dihydrofuran ring” (Wisconsin Alumni Research Foundation, priority 2008, dated 2011).
# pEC50, pKi: −log10 of the molar value. “Also recorded” adds a separate entry of the source. Like-named read-outs stand apart in the source and are kept apart here.
# Experiments:
# [1] = target: T1, full-length recombinant rat vitamin D receptor (Rattus norvegicus, UniProt P13053); assay: Vitamin D receptor competitive binding with [3H]-1,25-(OH)2D3
# T1 construct: Full-length recombinant rat receptor was expressed in E. coli; histidine tag (C); made in house; host or cells: E. coli BL21 (DE3) Codon Plus RIL
# T1 sequence (P13053 1-423): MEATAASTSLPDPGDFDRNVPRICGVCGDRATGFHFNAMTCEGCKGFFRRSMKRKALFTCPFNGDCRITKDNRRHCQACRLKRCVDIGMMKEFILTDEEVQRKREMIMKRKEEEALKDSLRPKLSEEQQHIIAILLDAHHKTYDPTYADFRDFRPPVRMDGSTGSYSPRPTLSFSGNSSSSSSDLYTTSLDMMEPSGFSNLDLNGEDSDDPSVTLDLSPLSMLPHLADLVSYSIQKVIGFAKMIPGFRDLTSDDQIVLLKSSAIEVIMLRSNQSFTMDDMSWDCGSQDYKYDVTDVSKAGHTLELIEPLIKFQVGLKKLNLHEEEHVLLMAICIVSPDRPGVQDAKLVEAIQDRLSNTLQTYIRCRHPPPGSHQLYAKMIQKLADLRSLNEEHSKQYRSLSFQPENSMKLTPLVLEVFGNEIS
# Source text: Vitamin D Receptor Binding
# Full-length recombinant rat receptor was expressed in E. coli BL2 1 (DE3) Codon Plus RIL cells and purified to homogeneity using two different column chromatography systems. The first system was a nickel affinity resin that utilizes the C-terminal histidine tag on this protein. The protein that was eluted from this resin was further purified using ion exchange chromatography (S-Sepharose Fast Flow). Aliquots of the purified protein were quick frozen in liquid nitrogen and stored at −80° C. until use. For use in binding assays, the protein was diluted in TEDK50 (50 mM Tris, 1.5 mM EDTA, pH 7.4, 5 mM DTT, 150 mM KCl) with 0.1% Chaps detergent. The receptor protein and ligand concentration were optimized such that no more than 20% of the added radiolabeled ligand was bound to the receptor.
# Radiolabeled and unlabeled ligands were added to 100 mcl of the diluted protein at a final ethanol concentration of ≦10%, mixed and incubated overnight on ice to reach binding equilibrium. The following day, 100 mcl of hydroxylapatite slurry (50%) was added to each tube and mixed at 10-minute intervals for 30 minutes. The hydroxylapaptite was collected by centrifugation and then washed three times with Tris-EDTA buffer (50 mM Tris, 1.5 mM EDTA, pH 7.4) containing 0.5% Titron X-100. After the final wash, the pellets were transferred to scintillation vials containing 4 ml of Biosafe II scintillation cocktail, mixed and placed in a scintillation counter. Total binding was determined from the tubes containing only radiolabeled ligand.
# [2] = tested on: HL-60 cells; assay: HL-60 differentiation (nitro blue tetrazolium reduction); format: cell-based, human; conditions: for pEC50: HL-60 cells, 4 days, read-out: EC50, HL60 differentiation
# Method: The study drugs were dissolved in ethanol and the concentrations determined using UV spectrophotometry. Serial dilutions were prepared so that a range of drug concentrations could be tested without changing the final concentration of ethanol (≦0.2%) present in the cell cultures.
# Human promyelocytic leukemia (HL60) cells were grown in RPMI-1640 medium containing 10% fetal bovine serum. The cells were incubated at 37° C. in the presence of 5% CO2.
# HL60 cells were plated at 1.2×10^5 cells/ml. Eighteen hours after plating, cells in duplicate were treated with drug. Four days later, the cells were harvested and a nitro blue tetrazolium reduction assay was performed (Collins et al., 1979; J. Exp. Med. 149:969-974). The percentage of differentiated cells was determined by counting a total of 200 cells and recording the number that contained intracellular black-blue formazan deposits. Verification of differentiation to monocytic cells was determined by measuring phagocytic activity (data not shown).
# [3] = tested on: 24-hydroxylase (24 Ohase) gene promoter in ROS 17/2.8 (bone) cells; assay: In vitro transcription assay (24-hydroxylase promoter luciferase reporter); format: cell-based; conditions: FIG. 3; for pEC50: ROS 17/2.8 cells, 24-hydroxylase promoter luciferase, 16 h, read-out: EC50, transcriptional activity in bone cells; for transcription of the 24-hydroxylase gene, times less potent than 1,25-(OH)2D3: relative to 1,25-(OH)2D3
# Method: In vitro Transcription Assay
# Transcription activity was measured in ROS 17/2.8 (bone) cells that were stably transfected with a 24-hydroxylase (24 Ohase) gene promoter upstream of a luciferase reporter gene (Arbour et al., 1998). Cells were given a range of doses. Sixteen hours after dosing the cells were harvested and luciferase activities were measured using a luminometer.
# RLU=relative luciferase units.
# [4] = tested on: bone calcium mobilization; assay: Bone calcium mobilization (serum calcium); format: in vivo, Sprague-Dawley rats; conditions: low calcium diet (0.02%), FIG. 4; for bone calcium mobilization activity: ip
# Method: (§1) Intestinal Calcium Transport and Bone Calcium Mobilization Male, weanling Sprague-Dawley rats were placed on Diet 11 (0.47% Ca) diet +AEK oil for one week followed by Diet 11 (0.02% Ca) +AEK oil for 3 weeks. The rats were then switched to a diet containing 0.47% Ca for one week followed by two weeks on a diet containing 0.02% Ca. Dose administration began during the last week on 0.02% calcium diet. Four consecutive ip doses were given approximately 24 hours apart. Twenty-four hours after the last dose, blood was collected from the severed neck and the concentration of serum calcium determined as a measure of bone calcium mobilization. The first 10 cm of the intestine was also collected for intestinal calcium transport analysis using the everted gut sac method.
# [5] = tested on: intestinal calcium transport; assay: Intestinal calcium transport (everted gut sac method); format: in vivo, Sprague-Dawley rats; conditions: FIG. 5
# Method: as §1
SMILES,"pKi ([1]; full-length recombinant rat vitamin D receptor, FIG. 1, read-out: Ki, competition with [3H]-1,25-(OH)2D3 for binding to VDR)","VDR affinity, times less potent than 1,25-(OH)2D3 ([1]; relative to 1,25-(OH)2D3, FIG. 1)",reduced VDR binding affinity ([1]; relative to native hormone),"pEC50 ([2]; Homo sapiens, 96 h, FIG. 2)","HL-60 differentiation, times less potent than 1,25-(OH)2D3 ([2]; relative to 1,25-(OH)2D3, FIG. 2)",reduced cell differentiation potency ([2]; relative to native hormone),pEC50 [3],"transcription of the 24-hydroxylase gene, times less potent than 1,25-(OH)2D3 [3]","transcription of the 24-hydroxylase gene, times less potent than 1,25-(OH)2D3 ([3]; listed as Ia)","bone calcium mobilization activity ([4]; 7,020 pmol/day for 4 consecutive days)","intestinal calcium transport activity ([5]; 780 pmol/day for 4 consecutive days, compared with 1,25-(OH)2D3 at 780 pmol/day)","intestinal calcium transport activity, overall compared with 1,25-(OH)2D3 ([5]; in vivo, no dose stated)",pEC50 ([2]; FIG. 2),bone calcium mobilization activity ([4]; 260 pmol/day),serum calcium levels ([4]; all the dosages tested)
"C[C@H](CCCC(C)(C)O)C1CCC2/C(=C/C=C3/C[C@@H](O)C4=CCO[C@@H]4C3)CCC[C@@]21C (stereo partly shown) [A-REV5, 1,2-dihydrofuran-25-hydroxy-19-nor-vitamin D3]",9.22,~10 times,about 1 log,7.52,~10 times,1 log,8.10,about 40 times,40 times,no bone calcium mobilization activity; also recorded: did not result in any mobilization of bone calcium,"almost the same activity as 1,25-(OH)2D3",promotes intestinal calcium transport in a dose dependent manner; also recorded: only slightly lower potency in vivo,,,
"C=C1/C(=C\C=C2/CCC[C@]3(C)[C@@H]([C@H](C)CCCC(C)(C)O)CC[C@@H]23)C[C@@H](O)C[C@@H]1O [1,25-(OH)2D3, 1α,25-dihydroxyvitamin D3, reference compound]",,,,,,,9.70,,,,,,8.52,significant activity,increased serum calcium levels at all the dosages tested
